Data from US8153773B2, “Synthesis and use of anti-reverse phosphorothioate analogs of the messenger RNA cap” (Board of Supervisors of Louisiana State University and …, priority 2007, dated 2012).

Columns and labels:
hDcp2 [1] = biological target: T1, hDcp2 (Homo sapiens, UniProt Q8IU60); assay: In vitro RNA decapping assay with recombinant hDcp2; assay type: biochemical; details: capped 32P-labeled short RNA, recombinant hDcp2, anion exchange HPLC (FIG. 6)
Experimental: Dcp2 activity was measured with capped 48-nt oligonucleotides as substrates, a truncated form of luciferase mRNA (48 nucleotides). GST-hDcp2 was expressed in Escherichia coli and purified as described by Z. Wang et al., “The hDcp2 protein is a mammalian mRNA decapping enzyme,” Proc. Natl. Acad. Sci. U.S.A., vol. 99, pp. 12663-12668 (2002). Capped oligonucleotides were first subjected to digestion with GST-hDcp2 at 37° C. for 2 h in decapping buffer (10 mM Tris-HCl, pH 7.5, 100 mM potassium acetate, 2 mM magnesium acetate, 0.5 mM MnCl2, 2 mM dithiothreitol, and 0.1 mM spermine). See C. Piccirillo et al., “Functional characterization of the mammalian mRNA decapping enzyme hDcp2,” RNA, vol. 9, pp. 1138-1147 (2003). The reaction mixture was then extracted once with an equal volume of phenol and twice with chloroform, and RNA was precipitated with ethanol. Products of the decapping reaction were further digested with a cocktail of ribonucleases (RiboShredder; Epicentre) at 37° C. for 1 h. The products were resolved by anion-exchange HPLC on a 4.6×250-mm Partisil 10SAX/25 column (Whatman). The gradient consisted of water for 1 min, a linear gradient to 112 mM KH2PO4, pH 4.5, for 20 min, a linear gradient of 112-450 mM KH2PO4 for 15 min, a linear gradient of 450 mM to 1.5 M KH2PO4 for 15 min, and isocratic elution at 1.5 M of KH2PO4 for 9 min, all at a flow rate 1 ml/min.
We tested oligonucleotides capped with either of S-ARCAs for hydrolysis by recombinant hDcp2 to test whether mRNA capped with the various diastereomers of m2^7,2′-OGpppsG and m2^7,2′-OGppspG would differ in their sensitivity to cleavage by Dcp1/Dcp2. See generally Z. Wang et al., “The hDcp2 protein is a mammalian mRNA decapping enzyme,” Proc. Natl. Acad. Sci. U.S.A., vol. 99, pp. 12663-12668 (2002), and Z. Wang et al., “An mRNA Stability Complex Functions with Poly(A)-Binding Protein To Stabilize mRNA In Vitro”, Mol. Cell. Biol., vol. 19, pp. 4552-4560 (1999). Cap analogs used were initially unlabeled, so to follow the products of the digestion reaction we synthesized capped oligonucleotides in the presence of [α-^32P]GTP and a DNA template in which G was the first ribonucleotide specified after the promoter. The oligonucleotides capped with either of the S-ARCAs were subjected to Dcp2 digestion in vitro, after which the products were further digested with a cocktail of ribonucleases (RiboShredder from Epicenter). Any nucleotide on the 5′ side of a G residue acquired a ^32P-labeled 3′-phosphate group after ribonuclease digestion by nearest-neighbor transfer. Anion exchange chromatography was then used to resolve the labeled 3′-nucleoside monophosphates (3′-NMP*), at internal positions in the RNA, from labeled 5′-terminal products (FIG. 6). The latter comprise p3 Gp* derived from uncapped transcripts and m2^7,2′-OGp3 Gp* (when m2^7,2′-OGp3G was used), or pGp* resulting from capped RNA resistant or nonresistant to enzymatic cleavage, respectively. All cap analogs used were ARCAs, which ensured that they were incorporated into RNA exclusively in the correct orientation. This further guaranteed that only one 5′-terminal product (m2^7,2′-OGp3 Gp*) was observed upon ribonuclease treatment. Uncapped RNA is not a substrate for Dcp2, which explains why p3 Gp* product was observed after Dcp2 digestion.
See E. Grudzien et al., “Differential inhibition of mRNA degradation pathways by novel cap analogs,” J. Biol. Chem., vol. 281, pp. 1857-1867 (2006).

hDcp2 [2] = biological target: T1, hDcp2; details: Grudzien et al. 2006; cited from earlier work
murine eIF4E (28-217) = biological target: T2, murine eIF4E (28-217) (Mus musculus, UniProt P63073); assay: Binding affinities for eIF4E by fluorescence quenching; details: murine eIF4E (28-217)
T2 construct: (28-217) to phosphorothioate cap analogs, as determined
T2 sequence (P63073 28-217): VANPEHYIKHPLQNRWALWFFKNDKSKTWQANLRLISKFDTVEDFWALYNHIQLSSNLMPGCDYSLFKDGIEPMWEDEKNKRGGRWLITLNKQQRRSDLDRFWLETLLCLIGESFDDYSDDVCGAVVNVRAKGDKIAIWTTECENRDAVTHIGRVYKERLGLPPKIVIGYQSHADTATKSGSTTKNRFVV
Experimental: Binding affinities of S analogs for murine eIF4E were determined by fluorescence quenching. Fluorescence titration measurements were carried out on an LS-50B spectrofluorometer (Perkin Elmer Co.) in 50 mM HEPES/KOH (pH 7.2), 100 mM KCl, 0.5 mM EDTA, 1 mM DTT at 20.0±0.2° C. Aliquots of 1 μl increasing concentration of cap analogue solutions were added to 1.4 ml of […] solutions. Fluorescence intensities (excitation at 280 nm with 2.5 nm bandwidth and detection at 337 nm with 4 nm bandwidth and 290 nm cut-off filter) were corrected taking into account sample dilution and the inner filter effect. Equilibrium association constants (KAS) were determined by fitting the theoretical dependence of the fluorescence intensity on the total concentration of cap analogue to the experimental data points according to equation described previously (See A. Niedzwiecka et al., “Biophysical studies of eIF4E cap-binding protein: recognition of mRNA 5′ cap structure and synthetic fragments of eIF4G and 4E-BP1 proteins,” J. Mol. Biol., vol. 319, pp. 615-635 (2002)). The concentration of protein was fitted as a free parameter of equilibrium equation showing amount of “active” protein. The final KAS was calculated as a weighted average of three to ten independent titrations, with the weights taken as the reciprocals of the numerical standard deviations squared. Numerical nonlinear least-squares regression analysis was performed using ORGIN 6.0 (Microcal Software Inc., USA). The Gibbs free energy of binding was calculated from the KAS value according to the standard equation ΔG°=−RTlnKAS.

HC11 cells = assay: Translational efficiency of capped luciferase mRNA in HC11 cells; assay type: cell-based, mouse; details: Luc-A60 mRNA capped with the analog in HC11 cells, relative to m^7Gp3G-capped mRNA
Experimental: Two methods, electroporation and nucleoporation, were used to deliver RNA into cells. In case of electroporation, 5 μg of RNA were introduced into 10^7 HC11 cells in a total volume 400 μl of serum-reduced RPMI 1640 medium in a Gene pulser cuvette (4 mm gap) with a Bio-Rad Genepulser™ set at 0.22 kV and 960 μF. Following discharge, the cells were washed twice with PBS, centrifuged for 2 min 300×g at room temperature, resuspended in prewarmed complete medium, and placed at 37° C. Nucleoporation was performed with an Amaxa Nucleofector II (Amaxa Biosystems) in accordance with manufacture's recommendations. One microgram of RNA was introduced into 10^6 HC11 cells with Nucleofector Solution V and the set of recommended regimens (program T-024).
For measurement of translational efficiency, cells were divided into several Eppendorf tubes, placed in a water bath at 37° C., and shaken. For measurement of mRNA stability, cells were distributed into 35-mm cell culture dishes and placed at 37° C. in a 5% CO2 humidified atmosphere. Cells were harvested at various times and washed twice with PBS.
For cytoplasmic RNA extraction, 2×10^5 cells were lysed in 175 μl of lysis buffer (50 mM Tris-HCl, pH 8.0, 140 mM NaCl, 1.5 mM MgCl2, 0.5% (v/v) Igepal (Sigma), and 1 mM dithiothreitol). RNAs were further purified using the RNeasy mini kit. For protein extraction, 2×10^5 cells were lysed in 200 μl of Luciferase Cell Culture Lysis Reagent (Promega). Luciferase activity of cell extracts was measured according to the manufacturer's protocol (Promega).
We also determined the translational efficiency in cultured cells for luciferase mRNA capped with S-ARCAs. This involved two measurements conducted at various times following nucleoporation—luciferase activity measured by luminometry in cleared cell lysates, and Luc-A60 levels measured by real-time PCR. Luciferase activity was normalized by the amount of luciferase mRNA that had been delivered into cells. To determine the amount of RNA present in the cells at a time immediately after nucleoporation, i.e., before any decay had occurred, cells were harvested at various times between 2 to 8 h post-nucleoporation, and cytoplasmic RNA was extracted. The amount of luciferase mRNA was measured by real time PCR using primers that amplify sequences near the 5′-end. Luciferase mRNA remaining at each time point was plotted as log10 ([RNA]) versus time to determine t1/2. The curve was extrapolated to 0 h, and the amount of RNA delivered into the cells was calculated. We defined conditions under which the accumulation of luciferase was linear with time, after an initial lag period of ˜30 min for recruitment of mRNA to ribosomes, completing the first polypeptide chain, and release of luciferase into the cytosol.

DcpS [3] = biological target: T3, DcpS (Homo sapiens, UniProt Q96C86); assay: Enzymatic hydrolysis by human DcpS; assay type: biochemical; design: key: the analogs assigned as resistant remained completely undigested under the applied conditions; the analogs assigned as hydrolyzed were hydrolyzed by DcpS with efficiency comparable to the respective unmodified parent compound; details: conditions giving complete degradation of unmodified parent within 40-90 min, RP HPLC
T3 sequence (Q96C86 1-337): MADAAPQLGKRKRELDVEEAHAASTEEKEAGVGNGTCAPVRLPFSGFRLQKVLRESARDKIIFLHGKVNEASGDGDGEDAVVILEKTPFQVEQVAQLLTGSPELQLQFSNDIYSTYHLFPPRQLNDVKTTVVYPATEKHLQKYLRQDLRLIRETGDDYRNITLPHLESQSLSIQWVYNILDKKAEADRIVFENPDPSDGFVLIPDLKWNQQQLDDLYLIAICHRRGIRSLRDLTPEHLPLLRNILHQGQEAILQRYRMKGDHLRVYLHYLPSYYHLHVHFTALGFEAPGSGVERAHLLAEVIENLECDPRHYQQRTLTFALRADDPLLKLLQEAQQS
Experimental: (§1) Human and nematode DcpS were expressed in Escherichia coli according to the procedures described previously (L. S. Cohen et al., “Nematode m7 GpppG and m3(2,2,7)GpppG decapping: activities in Ascaris embryos and characterization of C. elegans scavenger DcpS,” RNA, vol. 10, pp. 1609-1624 (2004)). Both proteins were stored at −80° C. in 20 mM Tris buffer, pH 7.5, containing 50 mM KCl, 0.2 mM EDTA, 1 mM DTT, 0.5 mM PMSF, and 20% glycerol. An appropriate cap analog at 1 mM concentration was treated with 5.0 or 7.0 μl of DcpS (from human or C. elegans, respectively) in 500 μl of 50 mM TRIS buffer, pH=7.9, containing 20 mM of MgCl2 and 60 mM of (NH4)2SO4 at 37° C. for 60-90 min. Every 15-20 min a 100 μl sample was collected from the reaction mixture and deactivated by incubation in 90° C. for 3 min. Collected samples were analyzed without further treatment by analytical RP HPLC using a linear gradient of methanol in 0.1 M KH2PO4, pH=6.0, from 0-50% within 15 min and UV-detection at 260 nm.
(§2) The new series of S-analogs were subjected to in vitro enzymatic hydrolysis catalyzed by DcpS from both human and C. elegans sources. In all experiments, the corresponding unmodified cap analog was used as a positive control, i.e., m^7GpppG for non-ARCA S-analogs and m2^7,2′-OGpppG for S-ARCAs. The amount of DcpS enzyme was optimized to provide complete degradation of the control substrate within 40-90 min. The samples collected from reaction mixtures at various time intervals were analyzed by RP HPLC (as described in Materials and Methods).
(§3) In Table 4, cap analogs at 4 μM concentration were subjected to enzymatic digestion by DcpS in conditions leading to complete degradation of the unmodified parent compound (i.e. m^7GpppG for non-ARCA S-analogs and m2^7,2′-OGpppG for ARCAs) within 40-90 min. Samples collected from reaction mixtures at various time intervals were analysed by RP HPLC with UV detection at 260 nm as described in Materials and Methods. […] The result was unchanged even if the reaction time was extended to 24 h, various amounts of enzyme were used, and composition of the reaction buffer was modified.

DcpS [4] = biological target: T4, DcpS (Caenorhabditis elegans, UniProt G5EFS4); assay: Enzymatic hydrolysis by C. elegans DcpS; assay type: biochemical; design: key: the analogs assigned as resistant remained completely undigested under the applied conditions; the analogs assigned as hydrolyzed were hydrolyzed by DcpS with efficiency comparable to the respective unmodified parent compound; details: conditions giving complete degradation of unmodified parent within 40-90 min, RP HPLC
T4 sequence (G5EFS4 1-311): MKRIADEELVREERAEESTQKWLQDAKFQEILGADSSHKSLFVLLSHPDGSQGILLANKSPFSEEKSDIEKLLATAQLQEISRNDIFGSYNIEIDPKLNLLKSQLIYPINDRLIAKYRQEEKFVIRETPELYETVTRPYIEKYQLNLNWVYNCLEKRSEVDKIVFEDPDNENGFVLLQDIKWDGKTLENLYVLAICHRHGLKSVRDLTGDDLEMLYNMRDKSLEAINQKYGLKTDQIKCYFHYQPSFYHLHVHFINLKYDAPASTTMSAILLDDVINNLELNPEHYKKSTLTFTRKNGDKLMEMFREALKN
Experimental: as §1, §2, §3

| SMILES | hydrolysis of capped oligonucleotide by hDcp2 (hDcp2 [1]) | hydrolysis of capped mRNA by recombinant human Dcp2 in vitro (hDcp2 [2]) | ΔG° (murine eIF4E (28-217); binding free energy calculated from KAS) [kcal/mol] | KAS (murine eIF4E (28-217); equilibrium association constant, fluorescence quenching) [µM⁻¹] | Relative translational efficiency (HC11 cells) | Resistance to enzymatic hydrolysis by DcpS (human) (DcpS [3]) | Resistance to enzymatic hydrolysis by DcpS (from C. elegans) (DcpS [4]) |
| --- | --- | --- | --- | --- | --- | --- | --- |
| CO[C@H]1[C@@H](O)[C@H](n2c[n+](C)c3c(=O)[nH]c(N)nc32)O[C@@H]1COP(=O)(O)OP(=O)(O)CP(=O)(O)OC[C@H]1O[C@@H](n2cnc3c(=O)[nH]c(N)nc32)[C@H](O)[C@@H]1O [m2^7,3′-OGppCH2pG, reference compound] | resistant | resistant to hydrolysis | – | – | – | – | – |
| Cn1c[n+]([C@@H]2O[C@H](COP(=O)(O)OP(=O)([O-])OP(=O)(O)OC[C@H]3O[C@@H](n4cnc5c(=O)[nH]c(N)nc54)[C@H](O)[C@@H]3O)[C@@H](O)[C@H]2O)c2nc(N)[nH]c(=O)c21 [m^7GpppG, reference compound] | – | – | -9.35 ± 0.02 | 9.4 ± 0.4 | 1.00 | hydrolyzed | hydrolyzed |
